Like-named read-outs stand apart in the source and are kept apart here.
Tests used:
HCT-116-Irv cells = experiment: Electrophysiological recordings of membrane conductance (whole-cell patch-clamp); format: cell-based, human; conditions: elisidepsin 1 μM; ramps -100 mV to +120 mV, 500 ms
Experimental: (§1) The effects of elisidepsin on membrane conductance were analyzed in HCT-116 and HCT-116-Irv cells as previously described. Experiments were performed in a small bath mounted on the stage of an inverted microscope (Nikon model TMS, Garden City, NY, USA) continuously perfused with the extracellular solution (Tyrode-glucose buffer). Ion currents were recorded at room temperature (20–22°C) using the whole-cell voltage-clamp configuration of the patch-clamp technique with an Axopatch 200B patch-clamp amplifier (Axon Instruments, Foster City, CA). Currents were filtered at 2 kHz (four-pole Bessel filter), sampled at 4 kHz. Data acquisition and command potentials were controlled by the CLAMPEX program of PCLAMP 9.2 software (Axon Instruments). Micropipettes were pulled from borosilicate glass capillary tubes (Narishige, GD-1, Tokyo, Japan) on a programmable horizontal puller (Sutter Instrument Co., San Rafael, CA, USA) and heat-polished with a microforge (Narishige). Pipette tip resistance averaged between 1 and 3 MΩ. The intracellular pipette solution contained (in mM): K-aspartate 80, KCl 50, phosphocreatine 3, KH2PO4 10, MgATP 3, HEPES-K 10, EGTA-K 5 and was adjusted to pH 7.25 with KOH. The external solution (Tyrode-glucose buffer) contained (in mM): NaCl 130, KCl 4, CaCl2 1.8, MgCl2 1, HEPES-Na 10, and glucose 10, and was adjusted to pH 7.40 with NaOH. Measurements were performed using the CLAMPFIT program of PCLAMP 9.2.

HCT-116 cells [1] = experiment: as above; format: cell-based, human; conditions: elisidepsin 1 μM, ramps -100 mV to +120 mV, 500 ms, n = 4
Experimental: as §1

HCT-116 cells [2] = experiment: cells
Experimental: (§2) Cells were seeded in 96-well microtiter plates and maintained at 37°C and 5% CO2 in drug-free medium before treatment with vehicle alone or elisidepsin at the concentrations and times indicated in the text. For cell survival quantification, a colorimetric assay using SRB was used. Briefly, after treatment, cells were washed twice with phosphate buffered saline (PBS), fixed for 25 min in 1% glutaraldehyde solution, rinsed twice with PBS, stained in 0.4% SRB-1% acetic acid solution for 30 min, rinsed several times with 1% acetic acid solution, and air-dried. […] Results are expressed as percentage of control cell survival and represent the mean of at least three independent experiments. IC50, half-maximal inhibitory concentration, was used as a reference value.

GM95-UGCG cells = conditions: read-out: mean IC50, GM95-UGCG cells; 72 h treatment (Fig 4C); SRB; at least three experiments
Experimental: as §2

[3] = Lipid overlay (dot-blot) assay with elisidepsin-biotin; format: binding, human; conditions: elisidepsin-biotin:elisidepsin 1:1 and 1:15
Experimental: Lipid extracts from cells were obtained according to the Bligh and Dyer method with slight modifications. Briefly, a cell pellet was resuspended in 1 mL of distilled water, then 3.75 mL of chloroform:methanol (1:2) was added and the suspension was mixed by vortexing two minutes; next, 1.25 mL of chloroform was added and vortexed one minute; last, 1.25 mL of NaCl 1 M was added to the suspension and vortexed one minute. The suspension was centrifuged and the bottom organic phase was collected. This solution was dried under a nitrogen stream and stored at -20°C. This extract was dissolved in a small volume of chloroform:methanol (2:1) and lipids were separated in a HPTLC (high performance thin layer chromatography) silica gel plate (Merck-Millipore, Darmstad, Germany) using a mobile phase of chloroform:methanol (8:2). Lipids were visualized by staining the plate with thioflavine S (sprayed with 10 μg mL^-1 in acetone:water (4:1) and visualized under UV light). Glycosylated lipids were visualized by orcinol staining (sprayed with orcinol 0.5% in sulphuric acid 0.5 M and developed with heat). […]
Interaction of purified lipid fractions with elisidepsin was evaluated with an overlay assay. […] Elisidepsin-biotin interactions were detected by incubation with streptavidin-HRP and subsequent chemiluminescence.

[4] = system: HCT-116-Irv cells (elisidepsin-resistant subline); experiment: cells
Experimental: B16 and GM95 cells were maintained in DMEM with the same supplements and conditions.
as §2

[5] = system: GM95 cells (UGCG-deficient B16 mutant); experiment: Cell viability assay (SRB colorimetric); format: cell-based, mouse; conditions: negative values where GM95 is the more sensitive line
Experimental: as §2

B16 cells = experiment: Cell viability assay (SRB colorimetric); format: cell-based, mouse; conditions: SRB assay; mean of three different experiments; read-out: B16 (IC50), cell growth half-maximal inhibitory concentration
Experimental: as §2

SMILES: C/C=C1\NC(=O)[C@H](Cc2ccccc2)NC(=O)[C@@H](C(C)C)NC(=O)[C@@H]([C@@H](C)CC)NC(=O)[C@H](NC(=O)[C@H](NC(=O)[C@H](CCCN)NC(=O)[C@H]2CCCN2C(=O)[C@H](NC(=O)[C@@H](NC(=O)[C@@H](NC(=O)[C@H](NC(=O)CC[C@@H](C)CC)C(C)C)[C@@H](C)O)C(C)C)C(C)C)[C@@H](C)CC)[C@@H](C)OC(=O)[C@H](C(C)C)NC1=O [Elisidepsin]
- Effect on membrane conductance (HCT-116-Irv cells): virtually no effect
- Time constant of the increase of membrane conductance (HCT-116 cells [1]; holding -80 mV, 20–22°C): 107 ± 39 s
- Latency between application and the beginning of the effects on membrane conductance (HCT-116 cells [1]): 460 ± 163 s
- Sensitivity of HCT-116 cells to elisidepsin after pretreatment with UGCG inhibitor NB-DNJ (HCT-116 cells [2]; pretreated 48 h with NB-DNJ 200 μM, elisidepsin 30 min incubation, SRB, three experiments): increase in cell resistance
- Sensitivity of HCT-116 cells to elisidepsin after pretreatment with UGCG inhibitor PDMP (HCT-116 cells [2]; pretreated 72 h with PDMP 10 μM, elisidepsin 30 min incubation, SRB, three experiments): increase in cell resistance
- IC50 (HCT-116 cells [2]; read-out: HCT-116 (IC50), cell growth half-maximal inhibitory concentration, SRB assay, 96-well, mean of three different experiments, exposure time not given): 5.5 µM
- IC50 (HCT-116 cells [2]; read-out: IC50 after 30 min exposure, HCT-116, 30 min exposure, SRB, mean±SD of at least three experiments): 7.7 ± 4.1 µM
- IC50 (GM95-UGCG cells): 9 µM
- Competition with elisidepsin-biotin for lipid fraction 4 [3]: could displace the biotinylated compound
- RR (resistance ratio): fold change between IC50 values from HCT-116-Irv and HCT-116 ([4]; negative values where HCT-116-Irv is the more sensitive line): 14.7
- IC50 ([4]; read-out: HCT-116-Irv (IC50), cell growth half-maximal inhibitory concentration, SRB assay, 96-well, mean of three different experiments, exposure time not given): 81 µM
- IC50 ([4]; read-out: IC50 after 30 min exposure, HCT-116-Irv, 30 min exposure, SRB, at least three experiments): > 100 µM
- IC50 ([4]; read-out: IC50 after 72 h exposure, HCT-116-Irv, 72 h exposure, SRB, mean±SD of at least three experiments): 81.5 ± 0.8 µM
- RR: fold change between IC50 values from GM95 and B16 [5]: 8.9
- IC50 (B16 cells): 7.9 µM
